The nature of data set [1]: Solid-state stability of carbamazepine dihydrate (PXRD) at room temperature, 56% relative humidity. The class given is physicochemical.
Protocol: CBZ dihydrate was prepared by suspending CBZ anhydrate in water for 24 hours.
For data set [2] the following is noted: cited from earlier work.

Consider `NC(=O)N1c2ccccc2C=Cc2ccccc21` [carbamazepine dihydrate], for which the “stability of the dihydrate form” value in data set [1] (56% relative humidity at room temperature throughout the whole experiments) is given as “stayed stable”. In addition, the “stability of the dihydrate form (PXRD)” value in data set [1] (3 days at room temperature 56% relative humidity) is reported as “stayed stable”. For `NC(=O)N1c2ccccc2C=Cc2ccccc21` [carbamazepine], the pKa in data set [2] is on record as 13.4.

As usually defined, the pKa is the negative logarithm of the acid dissociation constant.
